Test results from patent US9540323B2 (BRISTOL-MYERS SQUIBB COMPANY, priority 2012, dated 2017).

Assays:
[1] = test system: human platelet rich plasma (PRP); experiment: ADP induced platelet aggregation assay; settings: Homo sapiens, Platelet, 5 min, read-out: PA IC50 (μM) @ 10 μM ADP, human PRP, 10 μM ADP, AUC at 5 minute
[2] = molecular target: cloned human P2Y1 receptors (Homo sapiens (Human), UniProt P47900); experiment: Binding Assay B - Scintillation Proximity Assay (SPA) for P2Y1 binding, [33P] 2MeS-ADP; settings: SPA, 0.3 nM [33P] 2MeS-ADP, Cheng-Prusoff; read-out: P2Y1 Ki (nM) using binding assay B
Procedure: Binding Assay B—Scintillation Proximity Assay (SPA) for P2Y1 Binding
A SPA membrane binding assay was used to identify inhibitors of [^33P] […] Reactions were allowed to proceed to completion at room temperature for 1 hour followed by centrifugation of the plate for 5 min. About 40 μL of the aqueous solution was aspirated. Plates were sealed and the [^33P]

Chain of cloned human P2Y1 receptors (P47900 whole entry): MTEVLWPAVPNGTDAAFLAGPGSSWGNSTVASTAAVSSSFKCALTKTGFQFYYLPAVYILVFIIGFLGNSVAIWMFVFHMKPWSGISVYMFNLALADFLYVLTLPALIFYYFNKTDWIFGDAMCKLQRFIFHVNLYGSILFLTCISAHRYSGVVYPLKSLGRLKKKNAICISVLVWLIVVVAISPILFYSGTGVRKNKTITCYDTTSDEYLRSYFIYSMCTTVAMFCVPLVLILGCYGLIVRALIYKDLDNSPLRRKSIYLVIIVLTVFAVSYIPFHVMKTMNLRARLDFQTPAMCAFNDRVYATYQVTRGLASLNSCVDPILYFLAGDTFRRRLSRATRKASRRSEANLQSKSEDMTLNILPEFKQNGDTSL

SMILES: CC(C)CN1CCCC1c1ccc(NC(=O)Nc2ccccc2N2CC(C)(C)c3c(F)ccc(O)c32)cc1 (stereo not drawn) [Example 34, 1-(2-(4-Fluoro-7-hydroxy-3,3-dimethylindolin-1-yl)phenyl)-3-(4-(1-isobutylpyrrolidin-2-yl)phenyl)urea]
- IC50 [1]: 1.07 µM
- Ki [2]: 9.8 nM

SMILES: CCC1(CC)CN(c2ccccc2NC(=O)Nc2ccc(OC(F)(F)F)cc2)c2c1ccc(F)c2O [Example 35, 1-(2-(3,3-Diethyl-6-fluoro-7-hydroxyindolin-1-yl)phenyl)-3-(4-(trifluoromethoxy)phenyl)urea]
- IC50 [1]: 0.38 µM
- Ki [2]: 13.8 nM

SMILES: CCC1(CC)CN(c2ccccc2NC(=O)Nc2ccc(C3CCN(CC(C)(C)C)CC3)cc2)c2c1ccc(F)c2O [Example 37, 1-(2-(3,3-Diethyl-6-fluoro-7-hydroxyindolin-1-yl)phenyl)-3-(4-(1-neopentylpiperidin-4-yl)phenyl)urea]
- IC50 [1]: 0.89 µM
- Ki [2]: 8.7 nM

SMILES: CCC1(CC)CN(c2ccccc2NC(=O)Nc2ccc(C(C)(C)C)cc2)c2c1ccc(F)c2O [Example 38, 1-(4-tert-Butylphenyl)-3-(2-(3,3-diethyl-6-fluoro-7-hydroxyindolin-1-yl)phenyl)urea]
- IC50 [1]: 0.43 µM
- Ki [2]: 14.8 nM

SMILES: CCC1(CC)CN(c2ccccc2NC(=O)Nc2ccc(OC(F)(F)F)cc2)c2c(O)ccc(Br)c21 [Example 39, 1-(2-(3,3-Diethyl-4-bromo-7-hydroxyindolin-1-yl)phenyl)-3-(4-(trifluoromethoxy)phenyl)urea]
- IC50 [1]: 0.51 µM
- Ki [2]: 18.8 nM

SMILES: CC1(C)CN(c2ccccc2NC(=O)Nc2ccc(OC(F)(F)F)cc2)c2c(O)ccc(Br)c21 [Example 40, 1-(2-(4-Bromo-7-hydroxy-3,3-dimethylindolin-1-yl)phenyl)-3-(4-(trifluoromethoxy)phenyl)urea]
- IC50 [1]: 0.53 µM
- Ki [2]: 13.8 nM

SMILES: CC1(C)CN(c2ccccc2NC(=O)Nc2nc3ccc(Cl)cc3s2)c2c(O)ccc(Br)c21 [Example 41, 1-(2-(4-Bromo-7-hydroxy-3,3-dimethylindolin-1-yl)phenyl)-3-(6-chlorobenzo[d]thiazol-2-yl)urea]
- IC50 [1]: 0.47 µM
- Ki [2]: 10.6 nM

SMILES: CC1(C)CN(c2ccccc2NC(=O)Nc2nc3ccc(Br)cc3s2)c2c(O)ccc(Br)c21 [Example 42, 1-(2-(4-Bromo-7-hydroxy-3,3-dimethylindolin-1-yl)phenyl)-3-(6-bromobenzo[d]thiazol-2-yl)urea]
- IC50 [1]: 0.45 µM
- Ki [2]: 27.7 nM

SMILES: CCC1(CC)CN(c2ccccc2NC(=O)Nc2ccc(OC(F)(F)F)cc2)c2c(O)ccc(C#N)c21 [Example 43, 1-(2-(3,3-Diethyl-4-cyano-7-hydroxyindolin-1-yl)phenyl)-3-(4-(trifluoromethoxy)phenyl)urea]
- IC50 [1]: 0.47 µM
- Ki [2]: 7.8 nM

SMILES: CCC1(CC)CN(c2ccccc2NC(=O)Nc2ccc(C(C)(C)C)cc2)c2c(O)ccc(C#N)c21 [Example 44, 1-(4-tert-Butylphenyl)-3-(2-(4-cyano-3,3-diethyl-7-hydroxyindolin-1-yl)phenyl)urea]
- IC50 [1]: 0.45 µM
- Ki [2]: 6.9 nM

SMILES: CCC1(CC)CN(c2ccccc2NC(=O)Nc2ccc(C3CCN(CC(C)(C)C)CC3)cc2)c2c(O)ccc(C#N)c21 [Example 45, 1-(2-(4-Cyano-3,3-diethyl-7-hydroxyindolin-1-yl)phenyl)-3-(4-(1-neopentylpiperidin-4-yl)phenyl)urea]
- IC50 [1]: 0.39 µM
- Ki [2]: 6.7 nM

SMILES: CCC1(CC)CN(c2ccccc2NC(=O)Nc2ccc(C3CCN(CC(C)C)CC3)cc2)c2c(O)ccc(C#N)c21 [Example 46, 1-(2-(4-Cyano-3,3-diethyl-7-hydroxyindolin-1-yl)phenyl)-3-(4-(1-isobutylpiperidin-4-yl)phenyl)urea]
- IC50 [1]: 1 µM
- Ki [2]: 9.5 nM

SMILES: CC1(C)CN(c2ccccc2NC(=O)Nc2ccc(OC(F)(F)F)cc2)c2c(O)ccc(C#N)c21 [Example 47, 1-(2-(4-Cyano-7-hydroxy-3,3-dimethylindolin-1-yl)phenyl)-3-(4-(trifluoromethoxy)phenyl)urea]
- IC50 [1]: 3.35 µM
- Ki [2]: 18.6 nM

SMILES: CCC1(CC)CN(c2ccccc2NC(=O)Nc2ccc(C3CCN(CC(C)C)CC3)cc2)c2c(O)ccc(Cl)c21 [Example 50, 1-(2-(4-Chloro-3,3-diethyl-7-hydroxyindolin-1-yl)phenyl)-3-(4-(1-isobutylpiperidin-4-yl)phenyl)urea]
- IC50 [1]: 0.86 µM
- Ki [2]: 6.6 nM

SMILES: CCC1(CC)CN(c2ccccc2NC(=O)Nc2ccc(OC(F)(F)F)cc2)c2c(O)ccc(Cl)c21 [Example 51, 1-(2-(4-Chloro-3,3-diethyl-7-hydroxyindolin-1-yl)phenyl)-3-(4-(trifluoromethoxy)phenyl)urea]
- IC50 [1]: 0.41 µM
- Ki [2]: 14.1 nM

SMILES: CCC1(CC)CN(c2ccccc2NC(=O)Nc2ccc(C(F)(F)F)cc2)c2c(O)ccc(Cl)c21 [Example 52, 1-(2-(4-Chloro-3,3-diethyl-7-hydroxyindolin-1-yl)phenyl)-3-(4-(trifluoromethyl)phenyl) urea]
- IC50 [1]: 0.28 µM
- Ki [2]: 12.6 nM

SMILES: CCC1(CC)CN(c2ccccc2NC(=O)Nc2csc(Cl)n2)c2c(O)ccc(Cl)c21 [Example 53, 1-(2-(4-Chloro-3,3-diethyl-7-hydroxyindolin-1-yl)phenyl)-3-(2-chlorothiazol-4-yl)urea]
- IC50 [1]: 0.28 µM
- Ki [2]: 5 nM

SMILES: CCC1(CC)CN(c2ccccc2NC(=O)Nc2nc3c(s2)CN(CC(C)C)CC3)c2c(O)ccc(Cl)c21 [Example 54, 1-(2-(4-Chloro-3,3-diethyl-7-hydroxyindolin-1-yl)phenyl)-3-(5-isobutyl-4,5,6,7-tetrahydrothiazolo[5,4-c]pyridin-2-yl)urea]
- IC50 [1]: 0.15 µM
- Ki [2]: 13.3 nM

SMILES: CCC1(CC)CN(c2ccccc2NC(=O)Nc2nc3c(s2)CN(CC(F)(F)F)CC3)c2c(O)ccc(Cl)c21 [Example 55, 1-(2-(4-Chloro-3,3-diethyl-7-hydroxyindolin-1-yl)phenyl)-3-(5-(2,2,2-trifluoroethyl)-4,5,6,7-tetrahydrothiazolo[5,4-c]pyridin-2-yl)urea]
- IC50 [1]: 0.63 µM
- Ki [2]: 16.2 nM

SMILES: CC1(C)CN(c2ccccc2NC(=O)Nc2ccc(OC(F)(F)F)cc2)c2c(O)ccc(Cl)c21 [Example 56, 1-(2-(4-Chloro-7-hydroxy-3,3-dimethylindolin-1-yl)phenyl)-3-(4-(trifluoromethoxy)phenyl)urea]
- IC50 [1]: 0.87 µM
- Ki [2]: 8.7 nM

SMILES: CC1(C)CN(c2ccccc2NC(=O)Nc2ccc(C(F)(F)F)cc2)c2c(O)ccc(Cl)c21 [Example 57, 1-(2-(4-Chloro-7-hydroxy-3,3-dimethylindolin-1-yl)phenyl)-3-(4-(trifluoromethyl)phenyl) urea]
- IC50 [1]: 0.9 µM
- Ki [2]: 8.3 nM

SMILES: CC1(C)CN(c2ccccc2NC(=O)Nc2csc(Cl)n2)c2c(O)ccc(Cl)c21 [Example 58, 1-(2-(4-Chloro-7-hydroxy-3,3-dimethylindolin-1-yl)phenyl)-3-(2-chlorothiazol-4-yl)urea]
- IC50 [1]: 0.32 µM
- Ki [2]: 4.1 nM

SMILES: CC1(C)CN(c2cc(F)ccc2NC(=O)Nc2ccc(F)cc2F)c2c(O)ccc(C(F)(F)F)c21 [Example 59, 1-(2,4-Difluorophenyl)-3-(4-fluoro-2-(7-hydroxy-3,3-dimethyl-4-(trifluoromethyl)indolin-1-yl)phenyl)urea]
- IC50 [1]: 0.24 µM
- Ki [2]: 5.7 nM

SMILES: CC1(C)CN(c2ccc(F)cc2NC(=O)Nc2ccc(F)cc2F)c2c(O)ccc(C(F)(F)F)c21 [Example 60, 1-(2,4-Difluorophenyl)-3-(5-fluoro-2-(7-hydroxy-3,3-dimethyl-4-(trifluoromethyl)indolin-1-yl)phenyl)urea]
- IC50 [1]: 0.62 µM
- Ki [2]: 10.6 nM
